Data published in ChEMBL document CHEMBL5154907, “Discovery and Anti-Inflammatory Activity Evaluation of a Novel CDK8 Inhibitor through Upregulation of IL-10 for the Treatment of Inflammatory Bowel Disease In Vivo” (J Med Chem, 2022).
Activity calls are given as the source filed them.

What was measured:
[1] = Acute toxicity in 12 hr fasted ICR mouse assessed as toxic reaction at 2000 mg/kg, po measured daily for 7 days; assay type: organism-based; details: in vivo, 168 h, time 7 day
[2] = target: Cyclin-dependent kinase 8 (Homo sapiens) (UniProt P49336); assay: Binding affinity to CDK8 in human HCT-116 cells assessed as increase in thermal stability tolerance at 10 uM treated for 4 hrs followed by compound washout by CETSA assay; assay type: cell-based
Sequence of Cyclin-dependent kinase 8 (Homo sapiens) (P49336 whole entry): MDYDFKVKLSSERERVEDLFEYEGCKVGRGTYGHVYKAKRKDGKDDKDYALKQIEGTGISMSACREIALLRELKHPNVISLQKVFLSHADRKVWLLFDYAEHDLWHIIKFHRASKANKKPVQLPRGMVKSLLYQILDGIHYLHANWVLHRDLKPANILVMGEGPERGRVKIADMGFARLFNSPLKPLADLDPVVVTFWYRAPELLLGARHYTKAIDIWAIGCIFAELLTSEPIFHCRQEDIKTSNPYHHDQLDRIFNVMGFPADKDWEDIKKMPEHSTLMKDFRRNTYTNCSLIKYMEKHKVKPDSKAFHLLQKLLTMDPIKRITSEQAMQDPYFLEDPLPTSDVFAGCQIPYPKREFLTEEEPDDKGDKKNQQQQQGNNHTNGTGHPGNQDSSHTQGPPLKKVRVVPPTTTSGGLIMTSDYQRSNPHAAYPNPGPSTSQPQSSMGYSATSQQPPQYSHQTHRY

[3] = target: T1, Toll-like receptor 7 (Mus musculus) (UniProt P58681); assay: Inhibition of TLR7 expression in R848-stimulated mouse BMDC cells at 1 to 4 uM treated for 2 hrs followed by R848 stimulation for 12 hrs by western blot analysis; assay type: cell-based; details: dose 1-4 µM, time 14.0 hrs, DDE = dose-dependent effect
T1 sequence (whole entry): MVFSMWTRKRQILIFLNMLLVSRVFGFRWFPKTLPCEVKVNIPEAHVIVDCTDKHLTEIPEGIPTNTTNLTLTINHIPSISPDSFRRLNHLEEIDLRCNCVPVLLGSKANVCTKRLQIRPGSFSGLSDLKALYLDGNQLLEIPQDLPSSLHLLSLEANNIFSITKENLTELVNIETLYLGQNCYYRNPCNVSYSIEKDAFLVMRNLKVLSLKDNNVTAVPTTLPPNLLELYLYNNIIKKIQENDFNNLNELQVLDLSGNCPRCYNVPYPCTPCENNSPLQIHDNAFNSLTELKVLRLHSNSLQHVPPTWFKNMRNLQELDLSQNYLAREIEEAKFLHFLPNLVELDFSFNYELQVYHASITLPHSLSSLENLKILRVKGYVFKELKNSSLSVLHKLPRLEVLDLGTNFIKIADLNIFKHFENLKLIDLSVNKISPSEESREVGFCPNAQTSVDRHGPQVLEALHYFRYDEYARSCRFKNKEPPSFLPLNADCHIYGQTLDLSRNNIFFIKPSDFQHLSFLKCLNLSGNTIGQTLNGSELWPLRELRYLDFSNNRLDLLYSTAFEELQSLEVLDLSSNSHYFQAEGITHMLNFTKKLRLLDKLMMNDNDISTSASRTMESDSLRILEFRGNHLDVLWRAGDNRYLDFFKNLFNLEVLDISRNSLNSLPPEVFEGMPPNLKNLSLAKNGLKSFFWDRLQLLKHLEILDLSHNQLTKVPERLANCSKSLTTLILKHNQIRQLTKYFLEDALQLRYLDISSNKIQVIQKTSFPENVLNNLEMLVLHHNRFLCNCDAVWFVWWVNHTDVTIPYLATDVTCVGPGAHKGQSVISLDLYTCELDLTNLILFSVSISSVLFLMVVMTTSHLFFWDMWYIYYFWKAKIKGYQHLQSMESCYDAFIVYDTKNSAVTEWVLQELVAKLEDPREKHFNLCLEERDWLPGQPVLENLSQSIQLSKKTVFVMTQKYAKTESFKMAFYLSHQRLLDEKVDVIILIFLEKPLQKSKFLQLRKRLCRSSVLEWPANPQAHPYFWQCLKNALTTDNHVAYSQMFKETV

[4] = target: MAP kinase p38 (Mus musculus) (UniProt P47811+O08911+Q9WUI1+Q9Z1B7); assay: Inhibition of P38 phosphorylation in R848-stimulated mouse BMDC cells at 1 to 4 uM treated for 2 hrs followed by R848 stimulation for 12 hrs by western blot analysis; assay type: cell-based; details: dose 1-4 µM, time 14.0 hrs
[5] = Acute toxicity in 12 hr fasted ICR mouse assessed as effect on spleen at 2000 mg/kg, po measured after 7 days by hematoxylin and eosin staining based histopathological analysis; assay type: organism-based; details: in vivo, 168 h, time 7 day
[6] = Acute toxicity in 12 hr fasted ICR mouse assessed as effect on kidney at 2000 mg/kg, po measured after 7 days by hematoxylin and eosin staining based histopathological analysis; assay type: organism-based; details: in vivo, 168 h, time 7 day
[7] = Bioavailability in Sprague-Dawley rat at 10 mg/kg, po measured for 3 to 1440 mins by HPLC analysis; assay type: ADME, organism-based; details: in vivo, time 3-1440 min
[8] = test system: Mus musculus; assay: Anti-inflammatory activity in DSS-induced C57BL/6 mouse model of inflammatory bowel disease assessed as increase in colon length at 5 to 20 mg/kg, po daily measured after 10 days; assay type: functional, organism-based; details: dose 5-20 mg/kg, time 10.0 day
[9] = test system: Mus musculus; assay: Anti-inflammatory activity in C57BL/6 mouse model of inflammatory bowel disease assessed as reduction in DSS-induced epithelium destruction in colon tissue at 5 to 20 mg/kg, po daily measured after 10 days by hematoxylin and eosin staining based histopathological analysis; assay type: functional, organism-based; details: dose 5-20 mg/kg, time 10.0 day
[10] = test system: Mus musculus; assay: Anti-inflammatory activity in C57BL/6 mouse model of inflammatory bowel disease assessed as increase in DSS-induced IL-10 levels in serum administered orally daily measured after 10 days by ELISA method; assay type: functional, organism-based; details: dose 5-20 mg/kg, route po, time 10.0 day, DDE = dose-dependent effect
[11] = test system: Mus musculus; assay: Anti-inflammatory activity in C57BL/6 mouse model of inflammatory bowel disease assessed as decrease in DSS-induced IL-6 levels in colon tissue at 5 to 20 mg/kg, po daily measured after 10 days by ELISA method; assay type: functional, organism-based; details: dose 5-20 mg/kg, time 10.0 day
[12] = test system: Mus musculus; assay: Anti-inflammatory activity in C57BL/6 mouse model of inflammatory bowel disease assessed as reversal of DSS-induced TLR7 expression in colon tissue at 5 to 20 mg/kg, po measured after 10 days by western blot analysis; assay type: functional, organism-based; details: dose 5-20 mg/kg, time 10.0 day
[13] = test system: Mus musculus; assay: Anti-inflammatory activity in C57BL/6 mouse model of inflammatory bowel disease assessed as reversal of DSS-induced MyD88 expression in colon tissue at 5 to 20 mg/kg, po measured after 10 days by western blot analysis; assay type: functional, organism-based; details: dose 5-20 mg/kg, time 10.0 day
[14] = test system: Mus musculus; assay: Anti-inflammatory activity in C57BL/6 mouse model of inflammatory bowel disease assessed as decrease in DSS-induced P38 phosphorylation in colon tissue at 5 to 20 mg/kg, po measured after 10 days by western blot analysis; assay type: functional, organism-based; details: dose 5-20 mg/kg, time 10.0 day, DDE = dose-dependent effect
[15] = test system: Mus musculus; assay: Anti-inflammatory activity in DSS-induced C57BL/6 mouse model of inflammatory bowel disease assessed as increase in JAK1 phosphorylation in colon tissue at 5 to 20 mg/kg, po measured after 10 days by western blot analysis; assay type: functional, organism-based; details: dose 5-20 mg/kg, time 10.0 day
[16] = test system: Mus musculus; assay: Anti-inflammatory activity in DSS-induced C57BL/6 mouse model of inflammatory bowel disease assessed as increase in STAT3 phosphorylation in colon tissue at 5 to 20 mg/kg, po measured after 10 days by western blot analysis; assay type: functional, organism-based; details: dose 5-20 mg/kg, time 10.0 day

CCc1ccccc1NC(=O)c1cncc(-c2ccc(C(=O)N3CCNCC3)cc2)c1
29.3%: bioavailability [7]
Non-Toxic: Activity [1] | Activity [5] | Activity [6]
active: Activity [2] | inhibition [3] Dde | inhibition [4] | Activity [8] | Activity [9] | Activity [10] Dde | Activity [11] | Activity [12] | Activity [13] | Activity [14] Dde | Activity [15] | Activity [16]
